Source: ChEMBL document CHEMBL1201862, “PubChem BioAssay data set” (2004)
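Briefly, cells in 96-well plates were exposed to five compound concentrations for 48 h, and endpoints were estimated by linear interpolation. GI50 = concentration required for 50% inhibition of growth.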 Active and inactive are the calls of the source. No stated cut-off is given here; in the data, active = GI50 up to about 1.1 µM and inactive = higher.

Experiments:
Assay in all cases: NCI anticancer screen, dose series, 48 h
UO-31 = system: UO-31
K562 = system: K562
COLO 205 = system: COLO 205
ACHN = system: ACHN
CAKI-1 = system: CAKI-1
Malme-3M = system: Malme-3M
NCI-H226 = system: NCI-H226
T47D = system: T47D
SNB-19 = system: SNB-19
HL-60 = system: HL-60
UACC-62 = system: UACC-62
NCI-H460 = system: NCI-H460
Hs-578T = system: Hs-578T
EKVX = system: EKVX
NCI/ADR-RES = system: NCI/ADR-RES
IGROV-1 = system: IGROV-1
SK-MEL-2 = system: SK-MEL-2
UACC-257 = system: UACC-257
MDA-N = system: MDA-N

Measured: GI50

c1ccc2c(c1)ccc1ncccc12
inactive: UO-31 > 100 µM | K562 > 100 µM | COLO 205 > 100 µM | ACHN > 100 µM | CAKI-1 85.9 µM | Malme-3M > 100 µM | NCI-H226 > 100 µM | T47D > 100 µM | SNB-19 85.7 µM | HL-60 > 100 µM | UACC-62 83.8 µM | NCI-H460 > 100 µM | Hs-578T > 100 µM | EKVX > 100 µM | NCI/ADR-RES > 100 µM | IGROV-1 > 100 µM | SK-MEL-2 > 100 µM | UACC-257 > 100 µM

CC(C)C1N(C)c2ccc(Cl)cc2[C@H]2c3ccccc3CCN12 (stereo not given in full)
inactive: UO-31 98.4 µM | MDA-N 26.1 µM | K562 71.8 µM | COLO 205 36.4 µM | ACHN 82.2 µM | NCI-H226 14.3 µM | SNB-19 > 100 µM | HL-60 27.7 µM | UACC-62 25.4 µM | NCI-H460 94.8 µM | Hs-578T 25.8 µM | EKVX 28 µM | NCI/ADR-RES > 100 µM | IGROV-1 23.4 µM | SK-MEL-2 25.9 µM | UACC-257 30.4 µM

O=C1/C(=C\c2ccc(Cl)cc2)N=C(c2ccccc2)N1n1c(=O)cn[nH]c1=S
inactive: UO-31 60.4 µM | MDA-N 52.6 µM | K562 16.9 µM | COLO 205 > 100 µM | ACHN > 100 µM | CAKI-1 40.2 µM | Malme-3M > 100 µM | T47D 13.5 µM | SNB-19 54.3 µM | HL-60 18.2 µM | UACC-62 33.7 µM | NCI-H460 > 100 µM | EKVX > 100 µM | NCI/ADR-RES 45 µM | IGROV-1 18.5 µM | SK-MEL-2 > 100 µM | UACC-257 29.5 µM

COC(=O)C1=C(C(=O)OC)C(C(=O)c2ccc(Br)cc2)N2N=C(c3ccc(Cl)cc3)C=CC12 (stereo not given)
inactive: UO-31 > 100 µM | MDA-N > 100 µM | K562 > 100 µM | COLO 205 > 100 µM | ACHN > 100 µM | CAKI-1 80.7 µM | Malme-3M > 100 µM | NCI-H226 > 100 µM | SNB-19 > 100 µM | HL-60 > 100 µM | UACC-62 25.2 µM | NCI-H460 > 100 µM | Hs-578T > 100 µM | EKVX > 100 µM | NCI/ADR-RES > 100 µM | IGROV-1 > 100 µM | SK-MEL-2 > 100 µM | UACC-257 > 100 µM

C=C1CC[C@H]2C(=O)OC(c3ccoc3)C[C@]2(C)C/C=C\C=C/1C(=O)OC (stereo not given in full)
inactive: UO-31 13.6 µM | MDA-N > 25 µM | K562 > 25 µM | COLO 205 > 25 µM | ACHN > 25 µM | CAKI-1 > 25 µM | Malme-3M > 25 µM | NCI-H226 > 25 µM | SNB-19 > 25 µM | UACC-62 > 25 µM | NCI-H460 > 25 µM | Hs-578T > 25 µM | EKVX > 25 µM | NCI/ADR-RES 13.2 µM | IGROV-1 > 25 µM | SK-MEL-2 > 25 µM | UACC-257 > 25 µM

COC(=O)c1c(O)ccc2c1c1c(n2C)C(=O)c2ccccc2C1=O
inactive: UO-31 6.75 µM | K562 > 100 µM | COLO 205 65.9 µM | ACHN 9.29 µM | CAKI-1 7.69 µM | Malme-3M 42.5 µM | NCI-H226 9.02 µM | T47D 3.42 µM | SNB-19 16.3 µM | HL-60 > 100 µM | NCI-H460 8 µM | Hs-578T 6.93 µM | EKVX 42 µM | NCI/ADR-RES 43.7 µM | IGROV-1 4 µM | SK-MEL-2 25.4 µM | UACC-257 > 100 µM

CC(=O)NC(CC(C)C)C(=O)NC(CC(C)C)C(=O)NC(C=O)CCCNC(=N)N (stereo not given)
inactive: UO-31 > 100 µM | MDA-N > 100 µM | K562 > 100 µM | COLO 205 > 100 µM | ACHN > 100 µM | CAKI-1 > 100 µM | Malme-3M 72.6 µM | NCI-H226 42.3 µM | SNB-19 > 100 µM | UACC-62 > 100 µM | NCI-H460 > 100 µM | EKVX > 100 µM | NCI/ADR-RES > 100 µM | IGROV-1 > 100 µM | SK-MEL-2 > 100 µM | UACC-257 > 100 µM

C[C@H](c1ccccc1)N1C(=O)[C@@H](O)[C@H]1[C@H](CO)OCc1ccccc1
inactive: UO-31 > 100 µM | MDA-N > 100 µM | K562 > 100 µM | COLO 205 > 100 µM | ACHN > 100 µM | Malme-3M > 100 µM | NCI-H226 > 100 µM | SNB-19 > 100 µM | UACC-62 > 100 µM | Hs-578T > 100 µM | EKVX > 100 µM | NCI/ADR-RES > 100 µM | IGROV-1 > 100 µM | SK-MEL-2 > 100 µM | UACC-257 > 100 µM

N=C(N)/N=C(\N)Nc1cnccn1
inactive: UO-31 > 100 µM | MDA-N > 100 µM | K562 > 100 µM | COLO 205 > 100 µM | ACHN > 100 µM | CAKI-1 > 100 µM | Malme-3M > 100 µM | NCI-H226 > 100 µM | T47D > 100 µM | SNB-19 > 100 µM | HL-60 > 100 µM | UACC-62 > 100 µM | EKVX > 100 µM | NCI/ADR-RES > 100 µM | IGROV-1 > 100 µM | SK-MEL-2 > 100 µM | UACC-257 > 100 µM

Nc1ccc2c(c1)C(=O)N1CCC[C@H]1C(=O)N2
inactive: UO-31 > 100 µM | MDA-N > 100 µM | K562 > 100 µM | COLO 205 > 100 µM | ACHN > 100 µM | CAKI-1 > 100 µM | Malme-3M > 100 µM | NCI-H226 > 100 µM | T47D > 100 µM | SNB-19 > 100 µM | UACC-62 > 100 µM | NCI-H460 > 100 µM | EKVX > 100 µM | NCI/ADR-RES > 100 µM | IGROV-1 > 100 µM | SK-MEL-2 > 100 µM | UACC-257 > 100 µM

COC(=O)c1cc(NC(=O)c2cc(NC(=O)Cc3c[nH]c4ccccc34)cn2C)cn1C
inactive: UO-31 23.5 µM | MDA-N 37.2 µM | K562 44.4 µM | COLO 205 24.2 µM | ACHN 35.7 µM | CAKI-1 57.1 µM | Malme-3M 21.1 µM | NCI-H226 30.8 µM | T47D > 100 µM | SNB-19 21.8 µM | HL-60 34.6 µM | UACC-62 20.2 µM | NCI-H460 30.5 µM | EKVX 22.2 µM | NCI/ADR-RES > 100 µM | SK-MEL-2 19.6 µM

CCC(C(=O)C(=O)C(CC)P1(=O)OC(C)(C)CN1C(C)(C)C)P1(=O)OC(C)(C)CN1C(C)(C)C (stereo not given)
inactive: UO-31 > 100 µM | K562 31.8 µM | COLO 205 > 100 µM | ACHN > 100 µM | CAKI-1 > 100 µM | NCI-H226 > 100 µM | T47D > 100 µM | SNB-19 > 100 µM | HL-60 > 100 µM | UACC-62 > 100 µM | NCI-H460 > 100 µM | Hs-578T > 100 µM | EKVX > 100 µM | NCI/ADR-RES > 100 µM | IGROV-1 > 100 µM | SK-MEL-2 > 100 µM | UACC-257 > 100 µM

Cc1cn([C@H]2CN(O)C[C@@H](CO)O2)c(=O)[nH]c1=O
inactive: UO-31 > 100 µM | MDA-N > 100 µM | K562 > 100 µM | COLO 205 > 100 µM | ACHN > 100 µM | CAKI-1 > 100 µM | NCI-H226 > 100 µM | T47D > 100 µM | SNB-19 > 100 µM | HL-60 > 100 µM | UACC-62 > 100 µM | NCI-H460 > 100 µM | Hs-578T > 100 µM | EKVX > 100 µM | IGROV-1 > 100 µM | SK-MEL-2 > 100 µM | UACC-257 > 100 µM

COc1ccc2nc3ccc(OC)cc3c(SCc3ccccc3)c2c1
inactive: K562 > 63.2 µM | COLO 205 > 86.3 µM | ACHN 97.9 µM | CAKI-1 > 100 µM | Malme-3M > 100 µM | NCI-H226 > 100 µM | T47D > 100 µM | SNB-19 > 100 µM | HL-60 > 100 µM | UACC-62 > 100 µM | NCI-H460 > 89.1 µM | Hs-578T > 100 µM | EKVX > 100 µM | NCI/ADR-RES > 100 µM | IGROV-1 > 63.1 µM | SK-MEL-2 > 100 µM | UACC-257 > 92.5 µM

N=C(N)NCCN1CCCCCc2ccccc21
inactive: K562 > 10 µM | COLO 205 > 10 µM | ACHN > 10 µM | CAKI-1 > 10 µM | Malme-3M > 10 µM | NCI-H226 > 10 µM | T47D > 10 µM | SNB-19 > 10 µM | HL-60 > 10 µM | UACC-62 9.25 µM | NCI-H460 > 10 µM | Hs-578T 8.05 µM | EKVX > 10 µM | NCI/ADR-RES > 10 µM | IGROV-1 > 10 µM | SK-MEL-2 > 10 µM | UACC-257 > 10 µM

N#C/N=C(/N)c1sc2nc3c(c(-c4ccc(Br)cc4)c2c1N)CCCC3
inactive: UO-31 19.9 µM | MDA-N 3.42 µM | K562 9.23 µM | COLO 205 14.4 µM | ACHN 20.6 µM | CAKI-1 14.5 µM | NCI-H226 15.9 µM | SNB-19 33.4 µM | UACC-62 13.9 µM | NCI-H460 21.1 µM | NCI/ADR-RES 21.4 µM | SK-MEL-2 13.2 µM | UACC-257 28.5 µM
